Literature values in PMC5346970 (Journal of Medicinal Chemistry, 2017).
Values joined by “and” are separate entries in the source; they are usually repeats but may differ in a detail not shown here. Equal entries are not always repeated. Where two headings read alike, the source gives them in different places. Values belong to the molecule of their own block, whether it stands above or below them.

Assays:
[1] = for conjugate level in blood: 3.6 g daily dose, all six subjects
[2] = test system: Alzheimer’s disease; details: for mean plasma level three hours post-treatment / mean baseline plasma level at 24 weeks: LC/MS/MS; for mean plasma level three hours post-treatment: 24 weeks
[3] = test system: HAT Gcn5; details: in vitro
[4] = molecular target: malate dehydrogenase
[5] = room temperature, neutral pH
[6] = test system: CB2; details: repeated experiments after retraction
[7] = test system: GSK-3β; details: no DTT, 30–90 min incubation
[8] = test system: advanced pancreatic cancer; details: 8 g/day oral, steady state on day 3
[9] = test system: Aβ; details: transmission electron microscopy, in vitro
[10] = test system: histone methyltransferase G9a; details: counterscreen
[11] = test system: murine macrophage cells, J774.1; details: read-out: cytotoxicity IC50; murine macrophage cell line
[12] = test system: cannabinoid receptor 1 (CB1); details: repeated experiments after retraction
[13] = test system: mutant CFTR (ΔF508 mice); details: 45 mg kg^–1 day^–1 oral; not reproduced by independent lab (ref 139)
[14] = test system: amyloid-β (Aβ) fibril formation; details: ThT assay
[15] = synthetic 1, rats
[16] = test system: HIV-2 protease
[17] = test system: tau fibril formation
[18] = molecular target: AmpC β-lactamase
[19] = depending on solvent and method
[20] = test system: SERCA (sarcoplasmic/endoplasmic reticulum calcium) pump; details: previously reported
[21] = test system: Caco-2 model system
[22] = at 2 h, one individual, single 12 g oral dose
[23] = mice fed diets poor in iron
[24] = test system: HAT PCAF

Molecule: O=S(=O)(O)O [Sulfate]
- conjugate level in blood [1]: 8.9 ± 0.7 nmol/L

Molecule: (1E,6E)-1,7-bis(4-hydroxy-3-methoxyphenyl)-1,6-heptadiene-3,5-dione [Compound 1]
- inhibition of Gcn5 [3]: failed to inhibit
- IC50 ([4]; with Triton X-100): > 30 µM
- IC50 ([4]; without Triton X-100): 9 µM
- solubility in water [5]: practically insoluble
- solubility in water (estimate) ([5]; confounded by aggregation): 1 to 10 µg/mL
- inhibition of CB2 [6]: low micromolar inhibitor
- t1/2 for loss of parent compound (pH 7.5, rt, aqueous buffer): approximately 20 min
- reduction in parent material (samples prepared in clear versus amber glass): 5%
- compound degradation (solvolysis in aqueous alkaline buffer, within 30 min): 90%
- IC50 [7]: 0.066 µM
- plasma level [8]: 22 to 41 ng/mL
- effect on aggregation of Aβ [9]: does not affect the aggregation
- activity versus G9a [10]: failed to show any activity
- IC50 [11]: 31 µM
- inhibition of CB1 [12]: low micromolar inhibitor
- effect on phenotypic deficits [13]: ameliorated phenotypic deficits
- IC50 [14]: 1 to 64 µM
- oral bioavailability [15]: less than 1%
- IC50 ([16]; with Triton X-100): > 100 µM
- IC50 ([16]; without Triton X-100): 9 µM
- activity in FP secondary screen [17]: inactive
- IC50 ([18]; with Triton X-100): > 30 µM
- IC50 ([18]; without Triton X-100): 12 µM
- pKa, first phenolic proton [19]: 8.5–10.4
- pKa, second phenolic proton [19]: 9.5–10.7
- in vitro activity [20]: 5 to 15 µM
- mean baseline plasma level at 24 weeks [2]: 2.67 ± 1.69 ng/mL
- mean plasma level three hours post-treatment [2]: 7.76 ± 3.23 ng/mL
- plasma level by HPLC ([2]; one sample, 4 h after a 4 g dose, below assay LLOD): 6 ng/mL
- Papp [21]: 3.18 × 10^–6 ± 1.08 × 10^–6 cm/s
- peak serum level [22]: 57.6 ng/mL and 156 nmol/L
- level in blood as reported ([1]; 3.6 g daily, 1 h time point): 0.6 nM
- iron status [23]: inducing a state of overt iron deficiency
- activity versus PCAF ([24]; counterscreen): failed to show any activity
- inhibition of PCAF ([24]; in vitro): failed to inhibit

Other lines, results leading:

- mean plasma level three hours post-treatment [2]: 96.05 ± 26 ng/mL
- conjugate level in blood [1]: 15.8 ± 0.9 nmol/L
Molecule: COc1cc(/C=C/C(=O)CC(=O)/C=C/c2ccc(O[C@@H]3O[C@H](C(=O)O)[C@@H](O)[C@H](O)[C@H]3O)c(OC)c2)ccc1O [glucuronidated 1]

- mean plasma level three hours post-treatment [2]: 298.2 ± 140.0 ng/mL
Molecule: COc1cc(CCC(=O)CC(=O)CCc2ccc(OC3OC(C(=O)O)C(O)C(O)C3O)c(OC)c2)ccc1O (centres unmarked) [glucuronidated tetrahydrocurcumin]

- mean baseline plasma level at 24 weeks [2]: 6.86 ± 1.69 ng/mL
- mean plasma level three hours post-treatment [2]: 3.73 ± 2.0 ng/mL
Molecule: COc1cc(CCC(=O)CC(=O)CCc2ccc(O)c(OC)c2)ccc1O [tetrahydrocurcumin]
